SMILES strings stand for the structures.

As a reminder, the melting point is the temperature of the solid-liquid transition. In turn, `COCCNc1c(S(=O)(=O)C(F)(F)F)c(C#N)nn1-c1c(Cl)cc(C(F)(F)F)cc1Cl` had a melting point of 164 °C.

The record behind these values is patent US7576107B2 (dated 2009).
